Columns and labels:
[1] = system: UBA3; test: Western blot of UBA3 expression in RAW264.7 cells; assay type: cell-based, mouse; conditions: siRNA-transfected RAW264.7, FIG. 5B
Experimental: (§1) FIGS. 5A-5D are the data respectively depicting the effect of sRANKL on the neddylation pathway and the knockdown effect of UBA3 siRNA on macrophages during osteoclast differentiation according to example 4 of the present disclosure. FIG. 5A: RAW264.7 mouse macrophages were seeded on wells and were treated with various concentrations of sRANKL (0-100 ng/ml). After 72 hours' incubation, the cells were lysed and subjected to Western blotting analysis using specific antibodies in neddylation pathway. FIG. 5B: RAW264.7 mouse macrophages were seeded on wells and transfected with UBA3 or scrambled siRNA. After culture, the transfected cells were harvested, lysed, and further analyzed by Western Blot for checking NEDD8, UBA3, and APPBP1 expressions. FIGS. 5C and 5D: the UBA3 or scrambled siRNA transfected RAW264.7 cells were further treated with sRANKL (50 ng/ml), after 3-day induction, the morphological change of macrophages to TRAP-stained positive giant osteoclasts were photographed and further counted. Data are expressed as mean±SD where *p<0.05.
The RAW264.7 cells were starved with serum-free medium for six hours and then treated with the specified treatments. At indicated time points, the cells were washed with cold phosphate-buffered saline (PBS) and lysed in RIPA buffer containing complete protease inhibitor cocktail (Roche). […]

[2] = system: RAW264.7 cells; test: UBA3 knockdown on osteoclast differentiation, count of TRAP-positive giant osteoclasts; assay type: cell-based, mouse; conditions: siRNA-transfected RAW264.7, sRANKL 50 ng/ml, 3 days, FIG. 5C-5D
Experimental: as §1, with “*p<0.05. […]” for “*p<0.05.”
Six hours' post-transfection, the cells were treated with sRANKL (50 ng/ml). Three days later, the effect of UBA3 knockdown on mature giant osteoclast formation on wells was photographed and counted. […]

Substance: UBA3 siRNA 3: siRNA targeting UBA3, sense SEQ ID NO: 5, anti-sense SEQ ID NO: 6 (sense CCAAGCUCCAUUGUACCUUTT; antisense TTGGUUCGAGGUAACAUGGAA; chemistry not given here; one strand is listed 3' to 5')
- knockdown of UBA3 expression [1]: can knockdown the expression of UBA3
- differentiating number of giant osteoclasts [2]: significantly diminished the differentiating number of giant osteoclasts

Substance: UBA3 siRNA 2: siRNA targeting UBA3, sense SEQ ID NO: 3, anti-sense SEQ ID NO: 4 (sense GGAUCAAUGGAAUGCUGAUTT; antisense TTCCUAGUUACCUUACGACUA; chemistry not given here; one strand is listed 3' to 5')
- knockdown of UBA3 expression [1]: can knockdown the expression of UBA3
- differentiating number of giant osteoclasts [2]: significantly diminished the differentiating number of giant osteoclasts

Reference: patent US10285994B2, “Method of preventing or treating osteoporosis by neddylation inhibitor” (Chang Gung University, priority 2017, dated 2019)
